Test results: patent US20050031537A1, “Multifunctional COX-2 inhibitors” (priority 2002, published 2005)

What was measured:
EGFR = assay: Western blotting for expression of EGFR (test (b)); format: cell-based, human; conditions: positive in 184B5, 184B5/HER, 1483, LNCaP, HeLa and CaSki cells; 24 h; Western blot
Text: (§1) We turn now to the criterion (b), that is at least 50% decrease in level of or 50% downregulation of expression of Class I family of receptors tyrosine kinase. The Class I family of receptors tyrosine kinase is described in Reese, M. D., et al Stem Cells 15, pages 1-8 (1997), the whole of which in incorporated herein by reference. Members of the family include HER-2/neu, HER-3, HER-4 and epidermal growth factor receptor (EGFR) and are single-chain membrane spanning proteins which have significant homology to one another including about 80% amino acid identity in the tyrosine kinase domain.
Epidermal growth factor receptor (EGFR) is a 170 kDA glycoprotein. […] After ligand binding, EGFR undergoes dimerization which is essential for activation of its enzymatic kinase activity. EGFR is thus autophospliorylated and transphosphorylated on tyrosine residues, and the phosphorylated residues become the site of association of effector proteins. Overexpressed EGFR is intimately involved in modulating the epidermal growth factor growth signal and is considered as likely to confer a growth advantage. This conclusion is supported by the observation that tumor growth in nude mice is inhibited by treatment with anti-EGFR antibodies and tumorigenicity in nude mice is inhibited through blockage of the tyrosine kinase activity of the receptor.
(§2) To evaluate the expression of Class I family of receptors tyrosine kinase (EGFR, HER-2/neu), Western blotting can be performed. Antibodies for EGFR and HER-2/neu can be obtained from Santa Cruz Biotechnology, Inc.
(§3) Expression of EGFR (performed in 184B5, 184B5/HER, 1483, LNCaP, HeLa and CaSki cells)and HER-2/neu (performed in 184B5/HER, SKBR3 and BT474 cells) was assessed in cells after treatment with test compound for 24 hours. 5×10^6 cells were used for the treatment. Western blotting technique was used to assess the expression levels in cells treated with the test compound compared to vehicle alone. Western blotting was carried out as follows:
(§4) Cell lysates were prepared by treating cells with lysis buffer (150 mM NaCl, 100 mM Tris (pH 8.0), 1% Tween 20, 50 mM diethyldithiocarbamate, 1 mM EDTA, 1 mM phenylmethylsulfonyl fluoride, 10 μg/ml aprotinin, 10 μg/ml trypsin inhibitor and 10 μg/ml leupeptin). Lysates were sonicated for 20 s on ice and centrifuged at 10,000×g for 10 min to sediment the particulate material. The protein concentration of the supernatant was measured by the method of Lowry, O. H., et al., J. Biol. Chem. 193, 265-275 (195 1). SDS/PAGE was performed under reducing conditions on 10% polyacrylamide gels as described by Laemmli, U.K., Nature (Lond.) 227, 680-685 (1970). The resolved proteins were transferred onto nitrocellulose sheets as detailed by Towbin, H. et al., Proc. Natl. Acad. Sci. USA 76, 4350-4354 (1979). The nitrocellulose membrane was then incubated with anti-EGFR antiserum or anti-HER-2/neu antiserum. Secondary antibody to IgG conjugated to horseradish peroxidase was used. The various antisera were purchased from Santa Cruz Biotechnology, Inc., CA. The blots were probed with the Renaissance Western blot detection system according to the manufacturer's instructions (PerkinElmer Life Sciences, Boston, Mass.).

cyclin D1 = assay: Western blotting for expression of cyclin D1 (test (c)); format: cell-based, human; conditions: positive in 184B5, 184B5/HER cells; 24 h; Western blot
Experimental: Cyclin D1 is a protein that is important in regulating cell proliferation and is described in Ortega, S., et al, Biochimica et Biophysica Acta 1602, 73-87, (2002), the whole of which is incorporated by reference. […] Effects on expression of cyclin D1 was investigated in 184B5, 184B5/HER, HCA7, HCT116, SKBR3 and BT474 cells. The expression was assessed in cells after treatment with test compound or vehicle using 5×10^4 cells for 24 hours. Western blotting technique was used as follows to assess the expression levels of cyclin D1 in cells treated with the test compound and compared to levels in cells treated with vehicle alone. Cell lysates were prepared by treating cells with lysis buffer as described above. […] The resolved proteins were transferred onto nitrocellulose sheets. The nitrocellulose membrane was then incubated with anti-cyclin D1 antiserum. Secondary antibody to IgG conjugated to horseradish peroxidase was used. The various antisera were purchased from Santa Cruz Biotechnology, Inc., CA. The blots were probed with the Renaissance Western blot detection system according to the manufacturer's instructions (PerkinElmer Life Sciences, Boston, Mass.).

Nrf-2 = assay: Western and Northern blotting for expression of Nrf-2 (test (g)); format: cell-based, human; conditions: positive in 184B5, 184B5/HER, HCA7, HCT116, SKBR3, BT474 and CaSki cells
Experimental: We turn now to criterion (g), i.e. at least 50% increase in expression of Nrf-2. […] 13, 2001).
Western blotting and Northern blotting techniques were used to evaluate the expression of Nrf-2. The expression of Nrf-2 was evaluated in HCA7, HCT116, SKBR3, CaSki, 184B5/HER, 184B5 and BT474 cells. 5×10^6cells were used to treat either vehicle alone or the test compound. The Western blotting analysis was performed as described above except anti-Nrf-2 antibody was used to probe the blot. The antibody was obtained from Santa Cruz Biotechnology, Inc. CA. Northern blotting for Nrf-2 was performed as described above and cDNA for Nrf-2 as described in Gong, P., et al., J.Biol Chem 20; 276:27018-27025 (2001) was used as a probe.

PPRE luciferase = PPRE luciferase activation, transient transfection reporter assay (test (a)); format: cell-based, human; conditions: positive in 184B5, 184B5/HER, HCA7, HCT116, SKBR3 and BT474 cells; 24 h treatment
Text: We turn now to criterion (a), that is activation of PPRE luciferase by at least 100%. PPRE-luciferase refers to a DNA construct containing the peroxisome proliferator activated receptor (PPAR) binding element joined to luciferase. Cells are transfected with PPRE-luciferase DNA. Ligands of PPAR induce luciferase activity. The ability of a test compound to stimulate PPRE-luciferase signifies that the test compound activates PPAR-mediated gene transcription. PPRE means peroxisome proliferator response element and the method by which PPRE-luciferase is constructed is described in Schoonjans, K., et al, J. Biol. Chem. 270, No. 33, 19269-19276 (Aug. 18, 1995). Use of PPRE-luciferase in a transient transfection to measure increase in promoter activity is disclosed in Subbaramaiah, K. et al, J. Biol. Chem. 270, No. 15, 12440-12448 (Apr. 13, […]).
For each well, 1.8 μg of PPRE3-tk-luciferase construct plasmid DNA (described in Forman, B. M., et al, Cell 83, 803 (1995)) plus 0.2 μg of pSV-β-galactosidase were introduced into cells using 8 μg of LipofectAMINE as per the manufacturer's instructions (Invitrogen, CA). After 7 h of incubation, the medium was replaced with basal medium. After transfection, cells were treated with test compound for 24 h. Reporter activities which include luciferase and β-galactosidase were measured in cellular extract 24 h later. Six wells were used for each of the conditions. Luciferase activity represents data that have been normalized with β-galactosidase.
The luciferase assay was performed as per the BD Pharmingen assay reagents. The Enhanced Luciferase Assay Kit provides a firefly luciferase substrate formulation (Substrates A and B) and cell lysis buffer intended for use in measuring luciferase expressed by transfected cells. Media from cell culture plates was removed and rinsed twice with phosphate buffered saline. Enough 1X cell lysis buffer was added to cover cells and incubated at room temperature for 15-20 min. Cells were dislodged by scraping and transferred to microcentrifuge tubes. […] 20-100 μl cell extract was placed into an assay cuvette. One automatic injector type luminometer is used for assay. Manually 100 μl of Substrate A was added to the assay cuvette and automatically 100 μl of Substrate B was injected. Measurements were performed using a luminometer, for a measurement time of 10 seconds.
The β-galactosidase assay was performed as follows:
50 μl of cell lysate from above was incubated with 50 μl of o-nitrophenyl-β-D-galactoside (ONPG; 4 mg/mL) in Z buffer, (Na2HPO4.7H2O (0.06M), NaH2PO4.H2O (0.04M), 1M KCl (0.01M), 1M MgSO4 (0.001M), β-mercaptoethanol (BME) (0.05M) pH 7.0). The reaction was stopped after sufficient yellow color has developed. The yellow color developed is measured at A420 […].

[1] = Patient with atherosclerosis (Example VI); format: in vivo, human; conditions: person one, 200 mg bid
Text: patient one presents with symptoms of chest discomfort on exertion and is diagnosed with atherosclerosis. […] The progression of the atherosclerosis stops.

HER-2/neu = assay: Western blotting for expression of HER-2/neu (test (b)); format: cell-based, human; conditions: positive in 184B5/HER, BT474 and SKBR3 cells; 24 h; Western blot
Text: as §1
HER-2/neu (erbB-2) gene product is a 185-kDA transmembrane receptor tyrosine kinase that is described in some detail in said Reese et al publication and overexpression thereof has been associated with tumor growth in several kinds of cancer.
as §2, §3, §4

[2] = Patient with cervical intraepithelial neoplasia, HPV 16 detected (Example VIII); format: in vivo, human; conditions: person, 0.5% in a cream on sponge/cervical cap, six months
Text: A person presents to their gynecologist for evaluation. […] On biopsy, the patient is found to have cervical intraepithelial neoplasia. HPV 16 is detected. […] The SC-236 is discontinued with no recurrence of cervical intraepithelial neoplasia.

[3] = system: HPV16 oncoproteins E6 and E7; assay: Western and Northern blotting for HPV16 oncoproteins E6 and E7 (test (d)); format: cell-based, human papillomavirus; conditions: positive in CaSki and SiHa cells
Experimental: We turn now to the criterion (d), that is at least 50% downregulation of expression of HPV16 oncoproteins E6 and E7.
Protein E6 and E7 which are expressed by HPV16 are believed to play a major role in carcinogenesis.
Western blotting and Northern blotting techniques were used to evaluate the expression of HPV E6 and E7 proteins. The cell lines used for the study were CaSKi and SiHa. The cells were treated with the test compound and cell lysate was obtained as described above and subjected to Western blotting analysis. The Western blotting analysis was performed as described above except anti-HPV 16 E7 antibody was used to probe the blot. The antibody was obtained from Santa Cruz Biotechnology, Inc. CA. For Northern blotting, total cellular RNA was isolated from cell monolayers using an RNA isolation kit from QIAGEN Inc. after treatment with the test compound. 10 μg of total cellular RNA per lane were electrophoresed in a formaldehyde-containing 1.2% agarose gel and transferred to nylon-supported membranes. After baking, membranes were prehybridized overnight in a solution containing 50% formamide, 5×sodium chloride-sodium phosphate-EDTA buffer (SSPE), 5×Denhardt's solution, 0.1% SDS and 100 μg/ml single-stranded salmon sperm DNA and then hybridized for 12 h at 42° C. with radiolabeled cDNA probes for human HPV16 E6 or E7 cDNAs and 18S rRNA. E6 and E7 (as described in Woodworth, C. D., Cancer Res. 16, 4397-4402 (2000)) and 18S rRNA probes were labeled with [^32P]-CTP by random priming. After hybridization, membranes were washed twice for 20 min at room temperature in 2×SSPE-0.1% SDS, twice for 20 min in the same solution at 55° C., and twice for 20 min in 0.1×SSPE-0.1% SDS at 55° C. Washed membranes were then subjected to autoradiography.

Row | Compound | Test (b) EGFR: at least 50% decrease in level of or 50% downregulation of expression (EGFR) | Test (c) at least 50% downregulation of expression of cyclin D1 (cyclin D1) | Test (g) at least 50% increase in expression of Nrf-2 (Nrf-2) | Test (a) activation of PPRE luciferase by at least 100% (PPRE luciferase) | progression of the atherosclerosis [1] | Test (b) HER-2/neu: at least 50% decrease in level of or 50% downregulation of expression (HER-2/neu) | repeat biopsy finding of cervical intraepithelial neoplasia [2] | Test (d) at least 50% downregulation of expression of HPV16 oncoproteins E6 and E7 [3]
1 | COc1ccc2c(c1)c(CC(=O)Nc1ccc(NC(C)=O)cc1)c(C)n2C(=O)c1ccc(Cl)cc1 [Indomethacin Analog 5] | + (A plus sign in the table indicates a positive result, that is meeting the test for each cell line as indicated above as providing a positive result) | + (A plus sign in the table indicates a positive result, that is meeting the test for each cell line as indicated above as providing a positive result) | + (A plus sign in the table indicates a positive result, that is meeting the test for each cell line as indicated above as providing a positive result) | + (A plus sign in the table indicates a positive result, that is meeting the test for each cell line as indicated above as providing a positive result) |  |  |  | 
2 | COc1ccc(-n2nc(C(F)(F)F)cc2-c2ccc(Cl)cc2)cc1 [SC-560, 5-(4-chlorophenyl)-1-(4-methoxyphenyl)-3-(trifluoromethyl)-1H-pyrazole] |  |  |  |  | stops | + (A plus sign in the table indicates a positive result, that is meeting the test for each cell line as indicated above as providing a positive result) | no evidence of cervical intraepithehal neoplasia | + (A plus sign in the table indicates a positive result, that is meeting the test for each cell line as indicated above as providing a positive result)
